Where a name gives a salt, the structure may show the parent alone. Read-outs that look alike come from different tables or passages of the source.
Tests used:
[1] = tested on: blood glucose; test: Anti-hyperglycaemic activity (blood glucose after subcutaneous glucose in fasted mice); assay type: in vivo, Female CFLP mice; conditions: Mus musculus, read-out: Reduction in area under blood glucose curve
Description: Female CFLP mice, each weighing approximately 25 g were fasted for 24 hours prior to the study. The compounds under study were administered orally as an aqueous solution to each of 6 mice. 6 mice were given water as a control. 30 minutes later a blood sample (20 μl ) was obtained from the tail for the analysis of blood glucose. Immediately after taking this blood sample, glucose (1 g/kg body weight) was administered subcutaneously to each mouse. Blood samples were then obtained from each mouse at 30 minute intervals for 120 minutes.
Compounds that produced a significant (P<0.05) reduction of blood glucose, compared with control mice given water, at any time interval, were considered active. The area under the blood glucose curve over the 2 hour period after the adminstration of the glucose was calculated for each compound and compared with the value for control animals.

[2] = tested on: rat ear inflammation; test: Topical anti-inflammatory activity (croton oil rat ear inflammation); assay type: in vivo; conditions: 1.0 mg/rat ear; 6 hours; activity = significant (5% level) reduction in ear weight vs non-drug treated control
Description: The method used is based on that described by G. Tonelli et al (Endocrinology, 77, 625-634, 1965). An inflammation is induced in the rat ear by the application of 50 μl of a 1% solution of croton oil in tetrahydrofuran, test compounds being dissolved in the irritant vehicle. After 6 hours the inflammation is assessed by killing the animals and weighing the ears. Topical anti-inflammatory activity of a compound is generally considered to be shown when a significant (5% level) reduction in ear weight is seem compared to non-drug treated control.

[3] = tested on: Rat hearts; test: Cardiac activity, rat hearts perfused by the Langendorff procedure
Description: Rat hearts were perfused by the Langendorff procedure as follows:
Hearts were dissected free within 30 seconds of death and reverse perfused via the aorta and coronary vessels with Krebs-Ringer bicarbonate solution (pH 7.4, 37° C.) gassed with 95% oxygen:5% carbon dioxide at a flow rate between 8-12 cm^3 /minute. Responses were observed after injection of drug dissolved in isotonic saline into the perfusion media.
Results are expressed as a percentage of the maximum response due to salbutamol.

[4] = tested on: platelet aggregation; test: Platelet aggregation inhibition activity (collagen-induced fall in platelet count, oral dosing); assay type: in vivo, Male CFLP mice; conditions: collagen 400 μg/kg i.v. two hours later
Description: Male CFLP mice (ca 20 g, n=8) were dosed orally with compound or vehicle (controls) after an overnight fast. Two hours later each mouse received an intravenous dose of collagen (400 μg/kg, pH 6-6.6). Exactly 30 seconds after injection of collagen, each mouse was placed in a chamber of CO2 until respiration ceased. […] Each blood platelet count was expressed as a percent of that obtained in a tail blood sample taken immediately before injection of collagen.

[5] = dose 1 μ moles/kg po, 2 hour period after glucose 1 g/kg s.c.
[6] = 10 μg added to perfusate (salbutamol dose not given), read-out: Heart Rate (percentage of the maximum response due to salbutamol)
[7] = 10 μg added to perfusate (salbutamol dose not given), read-out: Heart Tension (percentage of the maximum response due to salbutamol)
[8] = read-out: Heart Rate (percentage of the maximum response due to salbutamol)
[9] = read-out: Heart Tension (percentage of the maximum response due to salbutamol)

In the case of `COc1ccc(CC(C)NCC(O)c2cccc(Cl)c2)cc1` (stereo not shown) [Example 5, N-[2-(4-Methoxyphenyl)-1-methylethyl]-2-hydroxy-2-(3-chlorophenyl)ethanamine], the inhibition in vivo at 1 µmol/kg ([1]; po, 2 h) is reported as 49% and the “Topical anti-inflammatory ACTIVITY” value [2] is reported as “Active”.

With `COc1ccc(C[C@@H](C)NCC(O)c2cccc(Cl)c2)cc1F` (stereo partly drawn) [Example 17, N-[2-(3-Fluoro-4-methoxyphenyl)-1-(R)-1-methylethyl]-2-(R,S)-2-hydroxy-2-(3-chlorophenyl)ethanamine hydrobromide] the inhibition in vivo at 2.5 µmol/kg ([1]; po, 2 h) was 38%.

In the case of `CC(Cc1ccc(OC(C)C)cc1)NCC(O)c1cccc(Cl)c1` (stereo not shown) [Example 11, N-[2-(4-Isopropoxyphenyl)-1-methylethyl]-2-hydroxy-2-(3-chlorophenyl)ethanamine], the inhibition in vivo at 0.2 µmol/kg ([1]; po, 2 h) is reported as 12.5%.

`CC(Cc1ccc(OCc2ccccc2)cc1)NCC(O)c1cccc(Cl)c1` (stereo not shown) [Example 1, N-[2-(4-Benzyloxyphenyl)-1-methylethyl]-2-hydroxy-2-(3-chlorophenyl)ethanamine] was tested, and the inhibition in vivo at 1 µmol/kg [1, 5] was 36%, the Emax [3, 6] was 0% and the Emax [3, 7] was 7%.

With `CC(Cc1ccc(OC2CCCCC2)cc1)NCC(O)c1cccc(Cl)c1` (stereo not shown) [Example 21, N-[2-(4-Cyclohexyloxyphenyl)-1-methylethyl]-2-hydroxy-2-[3-chlorophenyl)ethanamine hydrochloride] the inhibition in vivo at 2.5 µmol/kg ([1]; po, 2 h) was 53%.

Work on `COc1cccc(CC(C)NCC(O)c2cccc(Cl)c2)c1` (stereo not shown) [Example 23, N-[2-(3-Methoxyphenyl)-1-methylethyl]-2-hydroxy-2-(3-chlorophenyl)ethanamine hydrochloride] yielded an inhibition in vivo at 2.5 µmol/kg ([1]; po, 2 h) of 22%.

`CC(Cc1ccc(O)cc1)NCC(O)c1cccc(Cl)c1` (stereo not shown) [Example 2, N-[2-(4-Hydroxyphenyl)-1-methylethyl]-2-hydroxy-2-(3-chlorophenyl)ethanamine] gave an inhibition in vivo at 1 µmol/kg ([1]; po, 2 h) of 47%, an Emax [3, 8] of 14% and an Emax [3, 9] of 26%. For the same compound, the “% INHIBITION OF RESPONSE TO COLLAGEN” value ([4]; dose 5 μmol/kg po) was 40%.

With `COc1ccc(C[C@H](C)NC[C@H](O)c2cccc(Cl)c2)cc1OC` (relative stereo) [Example 20, N-[2-(3,4-Dimethoxyphenyl)-1-methylethyl]-2-hydroxy-2-(3-chlorophenyl)ethanamine-(RS,SR) diastereoisomer] the inhibition in vivo at 2.5 µmol/kg ([1]; po, 2 h) was 34%.

Compound `COc1ccc(C[C@@H](C)NC[C@H](O)c2cccc(Cl)c2)cc1` (relative stereo) [Example 6, N-[2-(4-Methoxyphenyl)-1-methylethyl]-2-hydroxy-2-(3-chlorophenyl)ethanamine hydrobromide-(RR,SS) diastereoisomer] has an inhibition in vivo at 0.5 µmol/kg ([1]; po, 2 h) of 30% and an inhibition in vivo at 1 µmol/kg ([1]; po, 2 h) of 40%.

`CCCCCCCCCCOc1ccc(CC(C)NCC(O)c2cccc(Cl)c2)cc1` (stereo not shown) [Example 13, N-[2-(4-^n Decyloxyphenyl)-1-methylethyl]-2-hydroxy-2-(3-chlorophenyl)ethanamine] showed an inhibition in vivo at 1 µmol/kg [1, 5] of 22%.

In the case of `COc1ccc(CC(C)NCC(O)c2cccc(Cl)c2)cc1C` (stereo not shown) [Example 18, N-[2-(4-methoxy-3-methylphenyl)-1-methylethyl]-2-hydroxy-2-(3-chlorophenyl)ethanamine], the inhibition in vivo at 2.5 µmol/kg ([1]; po, 2 h) is reported as 58%.

Work on `COc1ccc(C[C@@H](C)NC[C@H](O)c2cccc(Cl)c2)cc1F` (relative stereo) [Example 4, N-[2-(3-Fluoro-4-methoxyphenyl)-1-methylethyl]-2-hydroxy-2-(3-chlorophenyl)ethanamine hydrobromide-(RR,SS) diastereoisomer] yielded an inhibition in vivo at 1 µmol/kg ([1]; po, 2 h) of 42%.

For `COc1ccc(C[C@H](C)NC[C@H](O)c2cccc(Cl)c2)cc1F` (relative stereo) [Example 15, N-[2-(3-Fluoro-4-methoxyphenyl)-1-methylethyl]-2-hydroxy-2-(3-chlorophenyl)ethanamine-(RS,SR) diastereoisomer], the inhibition in vivo at 1 µmol/kg ([1]; po, 2 h) was 19%.

With `CC(=O)Oc1ccccc1C(=O)O` [Aspirin, reference compound] the “% INHIBITION OF RESPONSE TO COLLAGEN” value ([4]; dose 600 μmol/kg po) was 33%.

Work on `COc1ccc(CC(C)NCC(O)c2cccc(Cl)c2F)cc1` (stereo not shown) [Example 9, N-[2-(4-Methoxyphenyl)-1-methylethyl]-2-hydroxy-2-(3-chloro-2-fluorophenyl)ethanamine] yielded an inhibition in vivo at 1 µmol/kg ([1]; po, 2 h) of 40%.

`CC(C)(C)NCC(O)c1ccc(O)c(CO)c1` (stereo not shown) [Salbutamol, salbutamol, reference compound] was tested, and the Emax [3, 6] was 100% and the Emax [3, 7] was 100%.

`CCCCCOc1ccc(CC(C)NCC(O)c2cccc(Cl)c2)cc1` (stereo not shown) [Example 12, N-[2-(4-^n Pentyloxyphenyl)-1-methylethyl]-2-hydroxy-2-(3-chlorophenyl)ethanamine] showed an inhibition in vivo at 0.5 µmol/kg ([1]; po, 2 h) of 36%.

Work on `COc1ccc(CC(C)NCC(O)c2cccc(Cl)c2)cc1F` (stereo not shown) [Example 3, N-[2-(3-Fluoro-4-methoxyphenyl)-1-methylethyl]-2-hydroxy-2-(3-chlorophenyl)ethanamine] yielded an inhibition in vivo at 1 µmol/kg ([1]; po, 2 h) of 46%, an Emax [3, 8] of 0% and an Emax [3, 9] of 36%.

`COc1ccc(CC(C)NCC(O)c2cccc(F)c2)cc1` (stereo not shown) [Example 7, N-[2-(4-Methoxyphenyl)-1-methylethyl]-2-hydroxy-2-(3-fluorophenyl)ethanamine] was tested, and the inhibition in vivo at 5 µmol/kg ([1]; po, 2 h) was 32%.

`CC(Cc1ccc(OCCc2ccccc2)cc1)NCC(O)c1cccc(Cl)c1` (stereo not shown) [Example 22, N-[2-(4-{2-phenylethoxy}phenyl)-1-methylethyl]-2-hydroxy-2-(3-chlorophenyl)ethanamine] showed an inhibition in vivo at 2.5 µmol/kg ([1]; dose 2.5 μ moles/kg po, 2 hour period after glucose 1 g/kg s.c.) of 13%.

With `COc1ccc(CCC(C)(C)NCC(O)c2cccc(Cl)c2)cc1` (stereo not shown) [Example 16, N-[3-(4-Methoxyphenyl)-1,1-dimethylpropyl]-2-hydroxy-2-(3-chlorophenyl)ethanamine] the inhibition in vivo at 50 µmol/kg ([1]; dose 50 μ moles/kg po, 2 hour period after glucose 1 g/kg s.c.) was 21%.

`COc1ccc(CC(C)NCC(O)c2cccc(Cl)c2)cc1OC` (stereo not shown) [Example 19, N-[2-(3,4-Dimethoxyphenyl)-1-methylethyl]-2-hydroxy-2-(3-chlorophenyl)ethanamine] showed an inhibition in vivo at 2.5 µmol/kg ([1]; po, 2 h) of 21%.

In the case of `COc1ccccc1CC(C)NCC(O)c1cccc(Cl)c1` (stereo not shown) [Example 24, N-[2-(2-Methoxyphenyl)-1-methylethyl]-2-hydroxy-2-(3-chlorophenyl)ethanamine], the inhibition in vivo at 5 µmol/kg ([1]; po, 2 h) is reported as 27%.

For `CC(CCc1ccc(O)cc1)NCC(O)c1cccc(Cl)c1` (stereo not shown) [Example 10, N-[3-(4-Hydroxyphenyl)-1-methylpropyl]-2-hydroxy-2-(3-chlorophenyl)ethanamine], the inhibition in vivo at 1 µmol/kg [1, 5] was 47% and the “% INHIBITION OF RESPONSE TO COLLAGEN” value ([4]; dose 5 μmol/kg po) was 40%.

For `COc1ccc(CC(C)NCC(O)c2cccc(Br)c2)cc1` (stereo not shown) [Example 8, N-[2-(4-Methoxyphenyl)-1-methylethyl]-2-hydroxy-2-(3-bromophenyl)ethanamine], the inhibition in vivo at 1 µmol/kg ([1]; po, 2 h) was 30%.

Compound `COc1ccc(CCNCC(O)c2cccc(Cl)c2)cc1` (stereo not shown) [Example 14, N-[2-(4-Methoxyphenyl)ethyl]-2-hydroxy-2-(3-chlorophenyl)ethanamine] has an inhibition in vivo at 1 µmol/kg [1, 5] of 39%.

Source: patent US4622342A, “Secondary amines” (priority 1981, dated 1986)
